Results taken from ChEMBL document CHEMBL5303765, “Data for DCP probe BAY-7081” (2023).

Tests used:
[1] = target: 5-hydroxytryptamine receptor 2A (Homo sapiens) (UniProt P28223); conditions: Compound concentration 10.0 uM
[2] = target: T1, Cyclin-G-associated kinase (Homo sapiens) (UniProt O14976); test: GAK SGC Tm panel (DSF); conditions: for ΔTm: Compound concentration 10.0 uM
T1 sequence (whole entry): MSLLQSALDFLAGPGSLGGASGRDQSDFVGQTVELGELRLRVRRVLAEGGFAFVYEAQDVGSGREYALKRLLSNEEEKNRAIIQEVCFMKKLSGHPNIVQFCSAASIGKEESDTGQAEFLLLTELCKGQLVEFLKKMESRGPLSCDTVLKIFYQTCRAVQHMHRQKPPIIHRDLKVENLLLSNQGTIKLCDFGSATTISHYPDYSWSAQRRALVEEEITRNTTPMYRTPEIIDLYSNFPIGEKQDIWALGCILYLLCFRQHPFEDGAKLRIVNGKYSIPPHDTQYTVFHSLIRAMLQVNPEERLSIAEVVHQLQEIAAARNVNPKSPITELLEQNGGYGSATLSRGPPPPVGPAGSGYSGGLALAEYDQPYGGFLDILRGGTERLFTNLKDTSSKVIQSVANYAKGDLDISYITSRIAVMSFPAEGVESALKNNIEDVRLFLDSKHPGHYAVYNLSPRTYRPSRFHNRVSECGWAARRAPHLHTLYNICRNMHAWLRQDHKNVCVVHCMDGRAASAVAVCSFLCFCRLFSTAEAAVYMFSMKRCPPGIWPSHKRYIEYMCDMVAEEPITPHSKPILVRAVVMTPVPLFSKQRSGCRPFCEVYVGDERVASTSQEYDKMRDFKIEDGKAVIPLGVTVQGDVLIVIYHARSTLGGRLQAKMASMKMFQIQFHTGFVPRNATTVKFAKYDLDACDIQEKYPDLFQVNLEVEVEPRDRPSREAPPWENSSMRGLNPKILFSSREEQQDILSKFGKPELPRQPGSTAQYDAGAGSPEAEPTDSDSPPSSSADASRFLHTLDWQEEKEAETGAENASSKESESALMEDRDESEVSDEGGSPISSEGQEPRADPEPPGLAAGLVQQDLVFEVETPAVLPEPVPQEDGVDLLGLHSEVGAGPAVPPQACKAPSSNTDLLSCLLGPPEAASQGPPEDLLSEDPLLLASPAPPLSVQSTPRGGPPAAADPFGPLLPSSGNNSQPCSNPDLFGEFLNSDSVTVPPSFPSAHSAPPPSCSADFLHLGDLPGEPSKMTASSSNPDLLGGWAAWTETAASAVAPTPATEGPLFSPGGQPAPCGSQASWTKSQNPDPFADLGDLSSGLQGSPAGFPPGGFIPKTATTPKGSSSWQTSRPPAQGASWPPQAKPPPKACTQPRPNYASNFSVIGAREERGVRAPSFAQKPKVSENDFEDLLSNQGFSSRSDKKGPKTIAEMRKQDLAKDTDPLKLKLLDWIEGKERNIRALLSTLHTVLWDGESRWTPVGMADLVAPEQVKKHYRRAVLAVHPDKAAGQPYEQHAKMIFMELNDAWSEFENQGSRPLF

[3] = target: Serine/threonine-protein kinase 26 (Homo sapiens) (UniProt Q9P289); test: MST4 SGC Tm panel (DSF); conditions: for ΔTm: Compound concentration 10.0 uM
[4] = target: T2, Serine/threonine-protein kinase 17A (Homo sapiens) (UniProt Q9UEE5); test: STK17A SGC Tm panel (DSF); conditions: for ΔTm: Compound concentration 10.0 uM
T2 sequence (whole entry): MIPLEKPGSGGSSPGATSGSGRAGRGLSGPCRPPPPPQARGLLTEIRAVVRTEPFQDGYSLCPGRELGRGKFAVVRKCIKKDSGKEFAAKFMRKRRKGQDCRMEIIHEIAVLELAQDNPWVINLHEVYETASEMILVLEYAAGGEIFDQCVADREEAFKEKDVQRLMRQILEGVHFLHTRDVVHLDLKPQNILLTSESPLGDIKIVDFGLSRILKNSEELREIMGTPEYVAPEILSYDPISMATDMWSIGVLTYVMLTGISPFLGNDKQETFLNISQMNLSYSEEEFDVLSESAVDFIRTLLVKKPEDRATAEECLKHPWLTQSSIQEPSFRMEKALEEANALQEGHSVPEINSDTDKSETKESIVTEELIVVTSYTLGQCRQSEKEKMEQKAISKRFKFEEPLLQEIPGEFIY

[5] = target: Ephrin type-A receptor 2 (Homo sapiens) (UniProt P29317); test: EPHA2 SGC Tm panel (DSF); conditions: for ΔTm: Compound concentration 10.0 uM
[6] = target: Mitogen-activated protein kinase 8 (Homo sapiens) (UniProt P45983); test: MAPK8 SGC Tm panel (DSF); conditions: for ΔTm: Compound concentration 10.0 uM
[7] = target: Maternal embryonic leucine zipper kinase (Homo sapiens) (UniProt Q14680); test: MELK SGC Tm panel (DSF); conditions: for ΔTm: Compound concentration 10.0 uM
[8] = target: GABA-A receptor; anion channel (Rattus norvegicus) (UniProt O09028+P15431+P18506+P18508+P19969+P20236+P23574+P23576+P28471+P28473+P30191+P62813+P63079+P63138+Q91ZM7+Q9ES14); conditions: Compound concentration 10.0 uM
[9] = target: Tyrosine-protein kinase ABL1 (Homo sapiens) (UniProt P00519); test: ABL1 SGC Tm panel (DSF); conditions: for ΔTm: Compound concentration 10.0 uM
[10] = target: Histamine H3 receptor (Homo sapiens) (UniProt Q9Y5N1); conditions: Compound concentration 10.0 uM
[11] = target: Dual specificity mitogen-activated protein kinase kinase 1 (Homo sapiens) (UniProt Q02750); test: MAP2K1 SGC Tm panel (DSF); conditions: for ΔTm: Compound concentration 10.0 uM
Chain of Dual specificity mitogen-activated protein kinase kinase 1 (Homo sapiens) (Q02750 whole entry): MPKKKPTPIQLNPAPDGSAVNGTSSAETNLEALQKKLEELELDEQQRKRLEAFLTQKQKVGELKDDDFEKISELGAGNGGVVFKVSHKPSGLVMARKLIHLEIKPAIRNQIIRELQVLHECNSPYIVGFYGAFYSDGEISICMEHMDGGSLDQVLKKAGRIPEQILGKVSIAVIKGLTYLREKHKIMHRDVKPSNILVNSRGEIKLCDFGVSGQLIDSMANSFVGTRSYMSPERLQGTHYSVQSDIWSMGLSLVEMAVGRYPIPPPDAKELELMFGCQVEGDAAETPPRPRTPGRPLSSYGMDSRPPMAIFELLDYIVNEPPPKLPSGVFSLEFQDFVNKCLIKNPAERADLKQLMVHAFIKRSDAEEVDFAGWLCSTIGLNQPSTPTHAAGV

Chain of Ephrin type-A receptor 2 (Homo sapiens) (P29317 whole entry): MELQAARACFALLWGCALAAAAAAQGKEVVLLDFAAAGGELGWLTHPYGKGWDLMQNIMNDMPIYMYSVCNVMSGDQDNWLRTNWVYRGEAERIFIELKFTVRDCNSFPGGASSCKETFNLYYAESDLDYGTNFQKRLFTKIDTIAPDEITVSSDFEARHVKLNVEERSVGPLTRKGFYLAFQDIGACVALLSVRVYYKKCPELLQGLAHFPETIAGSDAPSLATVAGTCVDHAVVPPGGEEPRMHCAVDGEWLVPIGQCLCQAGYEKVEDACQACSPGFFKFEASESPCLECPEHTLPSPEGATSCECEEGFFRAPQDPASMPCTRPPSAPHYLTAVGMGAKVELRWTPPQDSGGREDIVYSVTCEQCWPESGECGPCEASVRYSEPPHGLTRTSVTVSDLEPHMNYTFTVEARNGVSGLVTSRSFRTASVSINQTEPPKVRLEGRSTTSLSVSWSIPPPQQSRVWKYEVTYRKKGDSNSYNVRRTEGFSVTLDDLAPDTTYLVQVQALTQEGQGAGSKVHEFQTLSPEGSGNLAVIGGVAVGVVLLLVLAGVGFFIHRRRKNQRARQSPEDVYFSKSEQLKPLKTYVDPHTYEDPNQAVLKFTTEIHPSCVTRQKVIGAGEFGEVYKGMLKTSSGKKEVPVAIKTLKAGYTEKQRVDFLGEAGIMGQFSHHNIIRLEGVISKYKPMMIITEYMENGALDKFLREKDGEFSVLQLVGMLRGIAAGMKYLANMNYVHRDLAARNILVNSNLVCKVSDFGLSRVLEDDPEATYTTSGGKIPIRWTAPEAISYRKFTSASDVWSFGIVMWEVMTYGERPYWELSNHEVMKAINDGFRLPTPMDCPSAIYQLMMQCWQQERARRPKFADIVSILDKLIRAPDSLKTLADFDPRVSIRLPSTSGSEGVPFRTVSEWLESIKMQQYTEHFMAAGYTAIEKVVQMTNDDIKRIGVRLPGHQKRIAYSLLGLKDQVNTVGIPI
Chain of Histamine H3 receptor (Homo sapiens) (Q9Y5N1 whole entry): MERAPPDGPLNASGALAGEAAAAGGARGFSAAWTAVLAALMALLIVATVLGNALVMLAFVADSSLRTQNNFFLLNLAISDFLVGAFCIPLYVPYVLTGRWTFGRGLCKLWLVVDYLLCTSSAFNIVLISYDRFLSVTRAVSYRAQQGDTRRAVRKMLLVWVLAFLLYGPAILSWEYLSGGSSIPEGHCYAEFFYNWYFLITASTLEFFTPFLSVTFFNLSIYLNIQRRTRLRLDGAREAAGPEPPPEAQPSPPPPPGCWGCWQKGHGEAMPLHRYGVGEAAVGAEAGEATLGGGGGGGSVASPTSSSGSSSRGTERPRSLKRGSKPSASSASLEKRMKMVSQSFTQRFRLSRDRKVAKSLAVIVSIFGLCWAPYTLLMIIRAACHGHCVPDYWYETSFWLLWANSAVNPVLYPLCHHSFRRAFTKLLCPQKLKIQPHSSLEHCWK
Chain of Tyrosine-protein kinase ABL1 (Homo sapiens) (P00519 whole entry): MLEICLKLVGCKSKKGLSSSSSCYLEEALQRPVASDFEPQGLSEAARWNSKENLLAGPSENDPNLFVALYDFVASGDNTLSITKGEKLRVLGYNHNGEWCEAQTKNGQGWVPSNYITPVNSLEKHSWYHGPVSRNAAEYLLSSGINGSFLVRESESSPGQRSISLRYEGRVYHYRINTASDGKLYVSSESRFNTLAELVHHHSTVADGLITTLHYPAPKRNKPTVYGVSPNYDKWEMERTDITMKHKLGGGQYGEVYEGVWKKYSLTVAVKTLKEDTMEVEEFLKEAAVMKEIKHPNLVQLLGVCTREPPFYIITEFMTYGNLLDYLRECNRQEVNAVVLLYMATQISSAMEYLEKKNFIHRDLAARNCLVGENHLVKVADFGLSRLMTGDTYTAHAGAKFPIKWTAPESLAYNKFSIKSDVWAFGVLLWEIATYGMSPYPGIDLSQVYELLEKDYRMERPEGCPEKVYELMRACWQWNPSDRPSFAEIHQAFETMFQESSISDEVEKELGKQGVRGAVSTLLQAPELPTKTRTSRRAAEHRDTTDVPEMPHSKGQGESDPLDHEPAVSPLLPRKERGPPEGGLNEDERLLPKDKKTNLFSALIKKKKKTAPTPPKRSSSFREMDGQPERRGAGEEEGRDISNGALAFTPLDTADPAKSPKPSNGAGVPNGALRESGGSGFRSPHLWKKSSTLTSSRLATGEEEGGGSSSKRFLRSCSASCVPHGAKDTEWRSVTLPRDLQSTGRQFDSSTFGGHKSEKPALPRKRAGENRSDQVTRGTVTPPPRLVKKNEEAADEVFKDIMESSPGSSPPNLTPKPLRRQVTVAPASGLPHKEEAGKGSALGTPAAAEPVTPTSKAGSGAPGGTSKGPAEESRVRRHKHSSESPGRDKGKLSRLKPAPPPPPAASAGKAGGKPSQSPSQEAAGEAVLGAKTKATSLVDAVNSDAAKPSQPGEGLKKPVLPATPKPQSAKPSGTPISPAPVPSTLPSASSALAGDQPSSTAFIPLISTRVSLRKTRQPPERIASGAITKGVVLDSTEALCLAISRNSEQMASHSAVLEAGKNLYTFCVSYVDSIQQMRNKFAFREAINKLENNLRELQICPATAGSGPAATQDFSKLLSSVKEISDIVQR
Chain of 5-hydroxytryptamine receptor 2A (Homo sapiens) (P28223 whole entry): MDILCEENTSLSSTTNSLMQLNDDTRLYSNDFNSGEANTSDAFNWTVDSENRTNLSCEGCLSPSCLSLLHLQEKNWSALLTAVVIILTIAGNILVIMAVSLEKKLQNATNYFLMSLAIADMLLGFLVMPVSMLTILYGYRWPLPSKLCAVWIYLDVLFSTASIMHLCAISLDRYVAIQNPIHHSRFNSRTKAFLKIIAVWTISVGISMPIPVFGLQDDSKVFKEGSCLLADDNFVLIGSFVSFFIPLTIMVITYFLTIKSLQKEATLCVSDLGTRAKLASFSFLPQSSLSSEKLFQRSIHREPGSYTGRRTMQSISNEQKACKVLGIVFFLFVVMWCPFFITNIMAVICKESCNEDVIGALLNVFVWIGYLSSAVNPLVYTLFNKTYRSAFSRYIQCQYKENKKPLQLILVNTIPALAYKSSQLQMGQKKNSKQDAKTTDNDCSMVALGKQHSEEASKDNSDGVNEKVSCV
Chain of Maternal embryonic leucine zipper kinase (Homo sapiens) (Q14680 whole entry, looked up): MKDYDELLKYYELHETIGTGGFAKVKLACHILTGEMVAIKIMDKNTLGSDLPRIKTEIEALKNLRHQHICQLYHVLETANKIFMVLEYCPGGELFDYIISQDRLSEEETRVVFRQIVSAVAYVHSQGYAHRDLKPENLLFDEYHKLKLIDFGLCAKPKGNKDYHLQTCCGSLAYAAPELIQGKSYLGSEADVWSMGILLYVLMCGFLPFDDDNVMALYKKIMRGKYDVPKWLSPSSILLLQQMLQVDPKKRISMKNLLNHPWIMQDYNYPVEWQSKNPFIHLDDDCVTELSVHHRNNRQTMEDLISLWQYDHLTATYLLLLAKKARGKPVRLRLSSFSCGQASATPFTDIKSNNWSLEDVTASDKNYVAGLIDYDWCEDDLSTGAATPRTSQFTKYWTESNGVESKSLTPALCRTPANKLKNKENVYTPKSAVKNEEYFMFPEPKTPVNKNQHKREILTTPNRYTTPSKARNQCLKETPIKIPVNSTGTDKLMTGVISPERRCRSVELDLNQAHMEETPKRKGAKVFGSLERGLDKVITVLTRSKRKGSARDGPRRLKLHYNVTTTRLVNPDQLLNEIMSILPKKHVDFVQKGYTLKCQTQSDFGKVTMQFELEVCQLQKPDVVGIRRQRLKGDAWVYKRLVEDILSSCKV
Chain of Mitogen-activated protein kinase 8 (Homo sapiens) (P45983 whole entry): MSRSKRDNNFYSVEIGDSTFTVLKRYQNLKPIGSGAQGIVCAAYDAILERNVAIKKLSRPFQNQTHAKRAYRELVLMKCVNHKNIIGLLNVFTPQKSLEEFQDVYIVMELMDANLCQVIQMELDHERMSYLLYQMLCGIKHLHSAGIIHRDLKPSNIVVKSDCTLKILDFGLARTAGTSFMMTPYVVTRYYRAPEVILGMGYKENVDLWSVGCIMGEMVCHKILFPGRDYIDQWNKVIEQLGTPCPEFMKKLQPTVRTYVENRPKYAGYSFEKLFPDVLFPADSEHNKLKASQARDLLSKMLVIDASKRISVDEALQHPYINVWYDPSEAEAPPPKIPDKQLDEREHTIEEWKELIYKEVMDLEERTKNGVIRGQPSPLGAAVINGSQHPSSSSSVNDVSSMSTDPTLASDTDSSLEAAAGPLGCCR
Chain of Serine/threonine-protein kinase 26 (Homo sapiens) (Q9P289 2-416 limits assumed): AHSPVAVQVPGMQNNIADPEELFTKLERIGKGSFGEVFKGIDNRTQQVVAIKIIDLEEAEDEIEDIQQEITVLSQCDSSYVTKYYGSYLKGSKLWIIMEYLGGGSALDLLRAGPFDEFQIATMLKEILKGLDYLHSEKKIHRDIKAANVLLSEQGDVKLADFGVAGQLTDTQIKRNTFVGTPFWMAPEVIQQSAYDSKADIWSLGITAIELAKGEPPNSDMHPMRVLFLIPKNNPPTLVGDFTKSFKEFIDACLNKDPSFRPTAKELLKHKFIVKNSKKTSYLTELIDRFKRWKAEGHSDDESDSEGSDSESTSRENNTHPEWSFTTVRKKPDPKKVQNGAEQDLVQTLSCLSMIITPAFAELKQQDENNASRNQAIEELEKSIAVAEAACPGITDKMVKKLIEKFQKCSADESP

SMILES | inhibition [1] [%] | delta Tm Staurosporine positive control [2] | ΔTm [2] | delta Tm Staurosporine positive control [3] | ΔTm [3] | delta Tm Staurosporine positive control [4] | ΔTm [4] | delta Tm Staurosporine positive control [5] | ΔTm [5] | delta Tm Staurosporine positive control [6] | ΔTm [6] | delta Tm Staurosporine positive control [7] | ΔTm [7] | inhibition [8] [%] | delta Tm Staurosporine positive control [9] | ΔTm [9] | inhibition [10] [%] | delta Tm Staurosporine positive control [11] | ΔTm [11]
CCC[C@H]1CNCc2c1[nH]c(=O)c(C#N)c2N1CCC2(CC1)CC2 | -6.26 | 9.89 | -1.15 | 6.5 | -1.58 | 11.8 | -1.05 | 7.41 | -0.621 | 7.45 | -0.298 | 14.2 | -0.201 | 3.16 | 8.44 | 0.111 | -0.66 | 6.3 | -0.252
CCC[C@@H]1CNCc2c1[nH]c(=O)c(C#N)c2N1CCC2(CC1)CC2 | -4.86 | 9.89 | -1.01 | 6.5 | -1.81 | 11.8 | -1.01 | 7.41 | -0.623 | 7.45 | -0.293 | 14.2 | 0.193 | -5.59 | 8.44 | 0.0781 | -1.01 | 6.3 | -0.203
